Experimental data taken from publication PMC10056899, “Neuroprotective and Antiherpetic Properties of Polyphenolic Compounds from Maackia amurensis Heartwood” (Molecules, 2023).
“And” between values parts separate entries of the source, which are not always exact repeats. Equal values may be shown once. Read-outs that look alike come from different tables or passages of the source.

What was measured:
[1] = DPPH radical scavenging assay; conditions: 20 min; for IC50: read-out: DPPH Scavenging Effect IC50
Method: The DPPH (2,2-diphenyl-1-picrylhydrazyl) scavenging effect of polyphenolic compounds 1-6 from M. amurensis heartwood was evaluated as described previously in [40]. Stilbenes were added to DPPH solution in MeOH (10^−4 M) at a concentration range from 1 to 34 µM. The mixture was kept in the dark at room temperature for 20 min. Then, we measured the absorbance at 517 nm using a Shimadzu UV 1240 spectrophotometer (Shimadzu, Kyoto, Japan). The DPPH radical-scavenging effect (%) of the stilbenes was calculated using Equation (1): (1) DPPH scavenging effect, %=A0−Ax/A0×100, where: • A0 is the absorbance of DPPH solution without polyphenolic compounds (blank sample); • Ax is the absorbance of DPPH solution in the presence of different concentrations of polyphenolic compounds.
Quercetin and ascorbic acid were used as reference compounds. All experiments were performed in triplicate. The half maximal inhibitory concentration (IC50) for polyphenolic compounds was calculated by plotting the DPPH scavenging effect (%) against the concentrations of polyphenolic compounds. IC50 values are given as the mean ± SEM.

HSV-1 [2] = test: Anti-HSV-1 activity, HSV-1 DNA level by real-time PCR (RT-PCR); format: cell-based, HSV-1 strain L2; conditions: 5 µg/mL, simultaneous treatment, 48 h; for 1, 4 and Maxar given on average
Method: The anti-HSV-1 activity of the polyphenolic compounds from M. amurensis was also studied using the real-time PCR (RT-PCR) technique (Figure 5 and Table S69, Supplementary Data). Vero cells were simultaneously infected with 100 TCD50/mL HSV-1 and treated with polyphenolic compounds 1–6 at concentrations of 50 and 5 μg/mL. After 48 h of cell incubation, viral DNA was extracted from the supernatants, and the relative level of HSV-1 DNA was determined using RT-PCR. The effect of stilbenes on the relative level of viral DNA was assessed by 2^−ΔCt method and reported as fold reduction relative to virus control, to which the value of 1.0 was assigned.
For the viral DNA extraction assay, Vero cells grown in 96-well plates were infected with HSV-1 and simultaneously treated with polyphenolic compounds and incubated at 37 °C in a CO2-incubator for 48 h. After incubation, the culture media and the cells scraped from the plate were transferred to centrifuge tubes. The cell debris was removed by centrifugation at 300× g for 10 min. Then, supernatant was collected and kept at −20 °C. The HSV-1 DNA was extracted from supernatant by using the AmpliSens® DNA-sorb-AM (K1-12-100-CE) nucleic acid extraction kit (Moscow, Russia) according to the manufacturer′s instructions. […]
The DNA HSV was detected in the obtained DNA samples using the AmpliSens® HSV I, II-FRT-100F PCR kit (Moscow, Russia) on a real-time PCR instrument Rotor-Gene Q (Qiagen, Hilden, Nordrhein-Westfalen, Germany) according to the manufacturer′s instructions. […] In the real-time PCR, the amplified product is detected with the use of fluorescent dyes. […] The threshold cycle number, Ct, was measured as the PCR cycle, where the amount of amplified target reached the threshold value. The reduction in the HSV-1 DNA levels in culture supernatants was assessed by the change in the threshold cycle (ΔCt) (Equation (4)):(4) ΔCt=Cttv−Ctcv where: • Cttv is the average Ct value for the infected samples after treatment with polyphenolic compounds; • Ctcv corresponds to the average Ct value for the virus control. […]

HSV-1 [3] = test: Anti-HSV-1 activity, cytopathic effect (CPE) inhibition assay in Vero cells; format: cell-based, HSV-1 strain L2; conditions: for IC50: read-out: IC50 (CPE assay); for SI = CC50/IC50: Vero cells, HSV-1
Method: The HSV-1 strain L2 and Vero cell culture (kidney epithelial cells of the African green monkey Chlorocebus sp.) were obtained from the N.F. Gamaleya Federal Research Centre for Epidemiology and Microbiology (Moscow, Russia). HSV-1 was grown in Vero cells, using Dulbecco′s Modified Eagle′s Medium (DMEM, Biolot, St. Petersburg, Russia) supplemented with 10% fetal bovine serum (FBS, Biolot, St. Petersburg, Russia) and 100 U/mL of gentamycin (Dalkhimpharm, Khabarovsk, Russia), at 37 °C in a CO2 incubator. In the maintenance medium, the FBS concentration was decreased to 1%.
The tested compounds were dissolved in DMSO (Sigma, St. Louis, MO, USA) at a concentration 10 mg/mL and stored at −20 °C. For cytotoxicity and anti-HSV-1 activity determination, the stock solutions were diluted with DMEM so that the final concentration of DMSO was 0.5%.
The anti-HSV-1 activity of stilbenes was evaluated using cytopathic effect (CPE) inhibition assay in Vero cells. We infected the monolayer of cells grown in 96-well plates (1 × 10^4 cells/well) with 100 µL/well of virus suspension (100 TCD50/mL) and we simultaneously treated it with stilbenes 1–6 (100 µL/well) at various concentrations (from 1 to 400 μg/mL) for one hour at 37 ◦C. After virus absorption, we removed the mixture of virus and stilbenes, washed the cells, and added the maintenance medium with 1% FBS. […] We used MTT assay to evaluate the antiviral activity of stilbenes. The viral inhibition rate (IR, %) was calculated according to Equation (3):(3) IR, %=Atv−Acv/Acd−Acv×100, where: • Atv is the absorbance of cells infected with virus and treated with a polyphenolic compound; • Acv is the absorbance of the untreated virus-infected cells; • Acd is the absorbance of control (untreated and non-infected) cells.
The selectivity index (SI) was calculated as the ratio of CC50 to IC50. Experiments were repeated three times.

Row | SMILES | DPPH Scavenging Effect IC50 [1] [µg] | IC50 [1] [µM] | Reduction of relative level of HSV-1 DNA relative to virus control (HSV-1 [2]) [log10] | IC50 (HSV-1 [3]; Human alphaherpesvirus 1, Vero) | SI = CC50/IC50 (HSV-1 [3]) | IC50 (HSV-1 [3]; Human alphaherpesvirus 1, added to Vero cells simultaneously with the virus, 100 TCD50/mL)
1 | COc1ccc([C@@H]2COc3cc(O)ccc3[C@H]2c2c(O)cc(O)cc2/C=C/c2ccc(O)c(O)c2)c(O)c1 [Compound 1] | 2.25 ± 0.25 | 4.3 ± 0.5 | ~1.3 | 14 µg/mL and 27.2 µM | 11.6 ± 1.3 | 
2 | Oc1ccc(/C=C/c2cc(O)cc3c2[C@H](c2cc(O)cc(O)c2)[C@@H](c2ccc(O)c(O)c2)O3)cc1 [Compound 4, scirpusin A] | 1.50 ± 0.19 | 3.2 ± 0.4 | ~1.3 |  | 14.4 ± 1.7 | 13.8 µg/mL and 29.4 µM
